Source: PubChem BioAssay (NCI)
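Cultured in 96-well plates, cells were exposed to test compound for 48 hours across five concentrations. TGI marks complete inhibition of growth.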

Tests used:
Assay in all cases: NCI tumour cell line growth inhibition, 48 h
NCI-H460 lung = test system: NCI-H460 lung
SF-295 CNS = test system: SF-295 CNS
KM12 colon = test system: KM12 colon
HT29 colon = test system: HT29 colon
MDA-MB-435 = test system: MDA-MB-435
NCI-H522 lung = test system: NCI-H522 lung
NCI/ADR-RES ovarian = test system: NCI/ADR-RES ovarian
MDA-N = test system: MDA-N
LOX IMVI melanoma = test system: LOX IMVI melanoma
A498 renal = test system: A498 renal
SK-MEL-5 melanoma = test system: SK-MEL-5 melanoma
COLO 205 colon = test system: COLO 205 colon

| SMILES | TGI (NCI-H460 lung) [µM] | TGI (SF-295 CNS) [µM] | TGI (KM12 colon) [µM] | TGI (HT29 colon) [µM] | TGI (MDA-MB-435) [µM] | TGI (NCI-H522 lung) [µM] | TGI (NCI/ADR-RES ovarian) [µM] | TGI (MDA-N) [µM] | TGI (LOX IMVI melanoma) [µM] | TGI (A498 renal) [µM] | TGI (SK-MEL-5 melanoma) [µM] | TGI (COLO 205 colon) [µM] |
| --- | --- | --- | --- | --- | --- | --- | --- | --- | --- | --- | --- | --- |
| CCOC(=O)c1c(-c2ccccc2)c(C)cn1C | > 10 | > 10 | > 10 | > 10 | > 10 | > 10 | > 10 | > 10 |  |  |  |  |
| Cc1ccc(NC(=O)C(=O)Cc2cccc[n+]2[O-])cc1C | > 100 | > 100 | > 100 | > 100 |  | > 100 |  |  | > 100 | > 100 | > 100 | > 100 |
| Cc1nc(Cc2n[nH]c(C)n2)n[nH]1 |  | > 100 | > 100 | > 100 | > 100 | > 100 | > 100 | > 100 | > 100 |  | > 100 | > 100 |
| COc1ccc(C23OCC(Cc4cc(OC)c(OC)cc42)C3CO)cc1OC (stereo not drawn) | > 100 | > 100 | > 100 |  | > 100 | > 100 | > 100 |  | > 100 | > 100 | > 100 | > 100 |
| O=C1/C(=C/c2ccc(Cl)cc2)Oc2ccccc21 | > 100 | > 100 | > 100 | > 100 | > 100 | 34.5 |  | > 100 |  |  | 42.1 | > 100 |
| O=C(O)C1(C(O)c2ccccc2)SCCCS1 (stereo not drawn) | > 10 | > 10 | > 10 | > 10 | > 10 |  |  | > 10 | > 10 | > 10 | > 10 |  |
| O=CC1=CCC2c3[nH]c4ccccc4c3CCN2C1 (stereo not drawn) | > 396 | 326 | 153 | 273 |  | > 396 |  |  | 111 |  | > 396 | > 396 |
| Clc1ccc(C2=NCON=C2c2ccc(Cl)cc2)cc1 | 40.6 | 49.4 | 39.6 | 31.1 |  |  | 71.2 | 56.5 | 28.3 |  | 30.3 | 29.9 |
| O=C(O)CCC1NC(/C(=C/c2ccccc2O)NC(=O)c2ccccc2)OC1=O (stereo not drawn) | > 100 | > 100 | > 100 | > 100 | > 100 | > 100 | > 100 |  | > 100 | > 100 | > 100 | > 100 |
